# In PubChem BioAssay (NCI):
#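 Values below derive from 48-hour exposures of cells grown in 96-well plates, with endpoints linearly interpolated between the two concentrations bracketing the appropriate inhibition level. At the GI50, growth is halved. The concentration for full growth arrest is given as TGI.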
# How the values were obtained:
# Assay in all cases: inhibition of tumour cell growth, NCI panel, 48 h
# MALME-3M melanoma = test system: MALME-3M melanoma
# A549 NSCLC = test system: A549 NSCLC
# UACC-62 melanoma = test system: UACC-62 melanoma
# OVCAR-3 ovarian = test system: OVCAR-3 ovarian
# UO-31 renal = test system: UO-31 renal
# SNB-75 CNS = test system: SNB-75 CNS
# HCT-15 colon = test system: HCT-15 colon
# SK-MEL-28 melanoma = test system: SK-MEL-28 melanoma
# MCF7 breast = test system: MCF7 breast
# T-47D breast = test system: T-47D breast
# HOP-62 NSCLC = test system: HOP-62 NSCLC
# A498 renal = test system: A498 renal
# CCRF-CEM leukemia = test system: CCRF-CEM leukemia
# ACHN renal = test system: ACHN renal
# K-562 leukemia = test system: K-562 leukemia
# IGROV1 ovarian = test system: IGROV1 ovarian
# SN12C renal = test system: SN12C renal
# LOX IMVI melanoma = test system: LOX IMVI melanoma
# PC-3 prostate = test system: PC-3 prostate
# SF-539 CNS = test system: SF-539 CNS
# OVCAR-4 ovarian = test system: OVCAR-4 ovarian
# UACC-257 melanoma = test system: UACC-257 melanoma
# DU-145 prostate = test system: DU-145 prostate
# MOLT-4 leukemia = test system: MOLT-4 leukemia
# M14 melanoma = test system: M14 melanoma
# COLO 205 colon = test system: COLO 205 colon
# U251 CNS = test system: U251 CNS
# CAKI-1 renal = test system: CAKI-1 renal
# SK-OV-3 ovarian = test system: SK-OV-3 ovarian
# SF-295 CNS = test system: SF-295 CNS
# SR leukemia = test system: SR leukemia
# NCI-H23 lung = test system: NCI-H23 lung
# BT-549 breast = test system: BT-549 breast
# NCI-H460 lung = test system: NCI-H460 lung
# RXF 393 renal = test system: RXF 393 renal
# MDA-MB-468 breast = test system: MDA-MB-468 breast
# SNB-19 CNS = test system: SNB-19 CNS
# OVCAR-5 ovarian = test system: OVCAR-5 ovarian
# EKVX NSCLC = test system: EKVX NSCLC
# SK-MEL-5 melanoma = test system: SK-MEL-5 melanoma
# HT29 colon = test system: HT29 colon
# HS 578T breast = test system: HS 578T breast
# SF-268 CNS = test system: SF-268 CNS
# MDA-MB-231 breast = test system: MDA-MB-231 breast
# TK-10 renal = test system: TK-10 renal
# MDA-MB-435 = test system: MDA-MB-435
# HCC-2998 colon = test system: HCC-2998 colon
# NCI-H226 lung = test system: NCI-H226 lung
# NCI-H522 lung = test system: NCI-H522 lung
# OVCAR-8 ovarian = test system: OVCAR-8 ovarian
# HL-60(TB) leukemia = test system: HL-60(TB) leukemia
# 786-0 renal = test system: 786-0 renal
# SW-620 colon = test system: SW-620 colon
# RPMI-8226 leukemia = test system: RPMI-8226 leukemia
# HCT-116 colon = test system: HCT-116 colon
# NCI/ADR-RES ovarian = test system: NCI/ADR-RES ovarian
# KM12 colon = test system: KM12 colon
# HOP-92 NSCLC = test system: HOP-92 NSCLC
compound,measurement,setting,value
C[C@@H]1CN(c2ccc3ncc(C#Cc4cncc(C(=O)Nc5ccc(CN6CCN(C)CC6)c(C(F)(F)F)c5)c4)n3n2)C[C@@H](C)O1,GI50,MALME-3M melanoma,276 nM
same,TGI,MALME-3M melanoma,826 nM
same,GI50,A549 NSCLC,340 nM
same,TGI,A549 NSCLC,938 nM
same,GI50,UACC-62 melanoma,310 nM
same,TGI,UACC-62 melanoma,989 nM
same,GI50,OVCAR-3 ovarian,328 nM
same,TGI,OVCAR-3 ovarian,1130 nM
same,GI50,UO-31 renal,128 nM
same,TGI,UO-31 renal,462 nM
same,GI50,SNB-75 CNS,61.6 nM
same,TGI,SNB-75 CNS,188 nM
same,GI50,HCT-15 colon,286 nM
same,TGI,HCT-15 colon,632 nM
same,GI50,SK-MEL-28 melanoma,520 nM
same,TGI,SK-MEL-28 melanoma,1230 nM
same,GI50,MCF7 breast,229 nM
same,TGI,MCF7 breast,679 nM
same,GI50,T-47D breast,754 nM
same,TGI,T-47D breast,2220 nM
same,GI50,HOP-62 NSCLC,318 nM
same,TGI,HOP-62 NSCLC,968 nM
same,GI50,A498 renal,678 nM
same,TGI,A498 renal,1370 nM
same,GI50,CCRF-CEM leukemia,475 nM
same,TGI,CCRF-CEM leukemia,1530 nM
same,GI50,ACHN renal,242 nM
same,TGI,ACHN renal,680 nM
same,GI50,K-562 leukemia,33.6 nM
same,TGI,K-562 leukemia,2730 nM
same,GI50,IGROV1 ovarian,276 nM
same,TGI,IGROV1 ovarian,772 nM
same,GI50,SN12C renal,143 nM
same,TGI,SN12C renal,647 nM
same,GI50,LOX IMVI melanoma,222 nM
same,TGI,LOX IMVI melanoma,468 nM
same,GI50,PC-3 prostate,507 nM
same,TGI,PC-3 prostate,1810 nM
same,GI50,SF-539 CNS,142 nM
same,TGI,SF-539 CNS,382 nM
same,GI50,OVCAR-4 ovarian,263 nM
same,TGI,OVCAR-4 ovarian,1240 nM
same,GI50,UACC-257 melanoma,737 nM
same,TGI,UACC-257 melanoma,3510 nM
same,GI50,DU-145 prostate,332 nM
same,TGI,DU-145 prostate,923 nM
same,GI50,MOLT-4 leukemia,297 nM
same,TGI,MOLT-4 leukemia,4090 nM
same,GI50,M14 melanoma,280 nM
same,TGI,M14 melanoma,771 nM
same,GI50,COLO 205 colon,316 nM
same,TGI,COLO 205 colon,719 nM
same,GI50,U251 CNS,362 nM
same,TGI,U251 CNS,1010 nM
same,GI50,CAKI-1 renal,1370 nM
same,TGI,CAKI-1 renal,3890 nM
same,GI50,SK-OV-3 ovarian,510 nM
same,TGI,SK-OV-3 ovarian,1570 nM
same,GI50,SF-295 CNS,332 nM
same,TGI,SF-295 CNS,1010 nM
same,GI50,SR leukemia,499 nM
same,TGI,SR leukemia,10300 nM
same,GI50,NCI-H23 lung,268 nM
same,TGI,NCI-H23 lung,617 nM
same,GI50,BT-549 breast,349 nM
same,TGI,BT-549 breast,1200 nM
same,GI50,NCI-H460 lung,379 nM
same,TGI,NCI-H460 lung,1040 nM
same,GI50,RXF 393 renal,187 nM
same,TGI,RXF 393 renal,432 nM
same,GI50,MDA-MB-468 breast,216 nM
same,TGI,MDA-MB-468 breast,452 nM
same,GI50,SNB-19 CNS,467 nM
same,TGI,SNB-19 CNS,1260 nM
same,GI50,OVCAR-5 ovarian,363 nM
same,TGI,OVCAR-5 ovarian,922 nM
same,GI50,EKVX NSCLC,227 nM
same,TGI,EKVX NSCLC,654 nM
same,GI50,SK-MEL-5 melanoma,673 nM
same,TGI,SK-MEL-5 melanoma,1370 nM
same,GI50,HT29 colon,311 nM
same,TGI,HT29 colon,979 nM
same,GI50,HS 578T breast,166 nM
same,TGI,HS 578T breast,794 nM
same,GI50,SF-268 CNS,299 nM
same,TGI,SF-268 CNS,1130 nM
same,GI50,MDA-MB-231 breast,59.5 nM
same,TGI,MDA-MB-231 breast,207 nM
same,GI50,TK-10 renal,299 nM
same,TGI,TK-10 renal,727 nM
same,GI50,MDA-MB-435,281 nM
same,TGI,MDA-MB-435,833 nM
same,GI50,HCC-2998 colon,426 nM
same,TGI,HCC-2998 colon,1010 nM
same,GI50,NCI-H226 lung,87.9 nM
same,TGI,NCI-H226 lung,574 nM
same,GI50,NCI-H522 lung,261 nM
same,TGI,NCI-H522 lung,525 nM
same,GI50,OVCAR-8 ovarian,366 nM
same,TGI,OVCAR-8 ovarian,1050 nM
same,GI50,HL-60(TB) leukemia,421 nM
same,TGI,HL-60(TB) leukemia,1170 nM
same,GI50,786-0 renal,407 nM
same,TGI,786-0 renal,986 nM
same,GI50,SW-620 colon,277 nM
same,TGI,SW-620 colon,768 nM
same,GI50,RPMI-8226 leukemia,507 nM
same,TGI,RPMI-8226 leukemia,2030 nM
same,GI50,HCT-116 colon,270 nM
same,TGI,HCT-116 colon,790 nM
same,GI50,NCI/ADR-RES ovarian,899 nM
same,TGI,NCI/ADR-RES ovarian,1850 nM
same,GI50,KM12 colon,11.4 nM
same,TGI,KM12 colon,534 nM
same,GI50,HOP-92 NSCLC,124 nM
same,TGI,HOP-92 NSCLC,496 nM
